Assay results as given in patent US8026211B2, “Methods and formulations for increasing intestinal function” (Technion Research & Development Foundation Ltd., priority 2004, dated 2011).

Legend:
[1] = tested on: jejunal and ileal crypt cells; assay: Rat model of SBS: crypt cell proliferation (5-BrdU incorporation); format: in vivo; conditions: SBS rats, oral insulin, vs SBS-untreated, p<0.05
Experimental: Animal treatment: Animals were obtained from the Rappaport Faculty of Medicine (Technion, Haifa, Israel). Male rats weighing 240-260 g were kept in individual stainless steel cages at constant temperature and humidity, and a 12-hour light-dark cycle was maintained. Rats were fasted 12 hours prior to the experiment with free access to water. Animals underwent one of two surgical procedures: bowel transection and re-anastomosis or 75% bowel resection and anastomosis. General anesthesia was induced with Pentobarbital (IP 40 mg/kg). Using sterile techniques, the abdomen was opened using a midline incision. […]
Group C—SBS-Insulin (SBS-INS, n=13) rats underwent bowel resection and were fed regular chow diet and water containing insulin (ACTRAPID insulin, NOVO NORDISK, Denmark) at concentration of 1 u/ml. Food and fluid intake of animals were monitored as well as weight for a period of 14 days following treatment after which the animals were sacrificed following intraperitoneal injection of pentobarbital (75 mg/kg).
Crypt Cell Proliferation and Enterocyte Apoptosis: Rats were injected with standard 5-bromodeoxyuridine (5-BrdU) labeling reagent (Zymed Lab, Inc, CA) at dose 1 ml per 100 g body weight two hours prior to sacrifice. […] An index of proliferation was determined as the ratio of crypt cells staining positively for BrdU per 10 crypts.

[2] = tested on: ischemia-reperfusion (IR) injury in rats; assay: Rat ischemia-reperfusion injury: intestinal histology (villus height, crypt depth, Park's injury grade); format: in vivo
Experimental: Surgical procedure: Following overnight fasting, the animals were anesthetized with intraperitoneal injection of pentobarbital (IP 40 mg/kg). Using sterile techniques, the abdomen was opened using a midline incision. […] IR underwent laparotomy, mobilization and occlusion of SMA and portal vein by vascular clamp for 30 minutes followed by a reperfusion period of 24 hours. Before closure of the abdomen, the rats were resuscitated with a 3-ml intraperitoneal injection of warm 0.9% saline. For all operations, the abdominal cavity was closed in two layers with a running suture of Dexon “S” Polyglycolic Acid 3/0. Rats were allowed free access to water and food. Twenty-four hours later, the rats were anesthetized with intraperitoneal pentobarbital (75 mg/kg) and were sacrificed by open pneumothorax.
Intestinal Histology: Intestinal samples from the proximal jejunum and distal ileum were fixed in 10% formalin, dehydrated in progressive concentrations of ethanol, cleared in xylene, and embedded in paraffin wax. Deparaffinized […] sections were stained with haematoxylin and eosin. Ten villi and crypts were selected for the microscopic analysis, using a 10×4 magnifying lens. Histological images were loaded on a 760×570 pixels resolution buffer using a computerized image analysis system composed of a trichip RGB video-camera (Sony, Japan), installed on a light microscope (Zeiss, Germany) and attached to an IBM compatible personal computer (Pentium III, MMX, 450 mhz, 125 MB RAM), equipped with a frame grabber. […] The villus height and crypt depth were measured using the Image Pro Plus 4 image analysis software (Media Cybernetics, Baltimore, Md., USA).
The degree of intestinal tissue injury was evaluated on a grading scale from 0 to 8 as described previously by Park et al., [Surgery. 107: 574, 1990]: 0—normal mucosa, 1—subepithelial space at villus tip, 2—more extended subepithelial space, 3—epithelial lifting along villus sides, 4—denuded villi, 5—loss of villus tissue, 6—crypt layer infarction, 7—transmucosal infarction, 8—transmural infarction.

infants with SBS = assay: Oral insulin supplementation in infants with SBS (clinical evaluation); format: in vivo, human
Source text: 1. Infants with less than 30 cm of small intestine (with ileo-cecal valve intact).
2. Infants with less than 40 cm without ileo-cecal valve.
3. Infants and children younger than 10 years of age, with SBS who are […] nutrition dependent and are not expected to be weaned of […] nutrition
Exclusion criteria: Infants in an unstable condition such as sepsis, acute gastroenteritis, pneumonia.
Dosage: 1 unit of insulin (Actrapid, Novonordisk, Denmark)/kg body weight per dose×4/day (every 6 hours) was administered for 28 days. Insulin was administered every six hours. Insulin will be provided as 1 u/ml of 0.45 NaCl orally.
Glucose monitoring: Following the first insulin dose, blood glucose levels were measured, immediately prior to the first and second meal following the first dose of insulin. Measurements were repeated for the first three days following supplementation and then weekly (days 7, 14, 21 and 28)
The clinical evaluation of the patients' conditions included the following parameters:
1. Weight, length, head circumference, MAC (mid arm circumference), TSF (triceps skin fold)—weekly
3. […] intake of calories, carbohydrates, lipids
4. Blood concentration levels of glucose, albumin, ALT, AST, GGT, ALP, total cholesterol, triglycerides (fasting), HDL-cholesterol, insulin (fasting, before insulin administration)
5. Blood amino acid levels
6. Insulin antibodies. 1 ml of serum was removed prior to treatment and at day 28 following treatment. The samples were frozen at −70° C. and sent, on dry ice, to Division of Pediatric Gastroenterology and Nutrition, Meyer Children's Hospital of Haifa, Bat-Galim 31096, Haifa for analysis.

[3] = infant with SBS, oral insulin started, within a few days after initiation

insulin
additional increase in proliferation index in jejunum [1]: 36%
increase in proliferation index in ileum [1]: 52%
intestinal injury grade (Park's criteria) in jejunum and ileum ([2]; IR rats, oral insulin, vs IR-animals): did not significantly change
ileal crypt depth ([2]; insulin treated IR rats, IR 131±7, p<0.05): 219±11 μm
jejunal crypt depth ([2]; insulin treated IR rats, IR 167±8, p<0.05): 264±13 μm
ileal villus height ([2]; insulin treated IR rats, IR 225±25, p<0.05): 421±40 μm
jejunal villus height ([2]; insulin treated IR rats, IR 341±29, p<0.05): 622±91 μm
stool output (infants with SBS; human infants with SBS, oral insulin 1 unit/kg per dose x4/day): reduced stool output
jaundice (infants with SBS; [3]): decrease in jaundice
need for parenteral nutrition (infants with SBS; [3]): reduced need for parenteral nutrition
oral feeds (infants with SBS; [3]): increase in oral feeds
clinical outcome (infants with SBS; infant with SBS, three months following the addition of insulin): discharged from hospital, thriving and on full oral feeds
parenteral nutrition status (infants with SBS; infant with SBS, two months following the addition of oral insulin): parenteral nutrition was stopped
